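Briefly, cells in 96-well plates were exposed to five compound concentrations for 48 h, and endpoints were estimated by linear interpolation. Abbreviation: GI50, concentration required for 50% inhibition of growth. TGI is the concentration that stops growth completely.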
Key:
Experiment in all cases: growth of human tumour cells (NCI), 48 h
[1] = tested on: HCT-116 colon
[2] = tested on: SK-MEL-5 melanoma
[3] = tested on: SW-620 colon
[4] = tested on: HT29 colon
[5] = tested on: KM12 colon
[6] = tested on: HCC-2998 colon
[7] = tested on: NCI/ADR-RES ovarian
[8] = tested on: LOX IMVI melanoma
[9] = tested on: NCI-H522 lung
[10] = tested on: 786-0 renal
[11] = tested on: HOP-92 NSCLC
[12] = tested on: OVCAR-4 ovarian
[13] = tested on: HCT-15 colon
[14] = tested on: MALME-3M melanoma
[15] = tested on: OVCAR-5 ovarian
[16] = tested on: NCI-H23 lung
[17] = tested on: CAKI-1 renal
[18] = tested on: ACHN renal
[19] = tested on: SN12C renal
[20] = tested on: BT-549 breast
[21] = tested on: HS 578T breast
[22] = tested on: SNB-19 CNS
[23] = tested on: SK-MEL-28 melanoma
[24] = tested on: RXF 393 renal
[25] = tested on: COLO 205 colon
[26] = tested on: UACC-257 melanoma
[27] = tested on: EKVX NSCLC
[28] = tested on: RPMI-8226 leukemia
[29] = tested on: TK-10 renal
[30] = tested on: SK-OV-3 ovarian
[31] = tested on: SR leukemia
[32] = tested on: NCI-H460 lung
[33] = tested on: OVCAR-8 ovarian
[34] = tested on: A549 NSCLC
[35] = tested on: HL-60(TB) leukemia
[36] = tested on: PC-3 prostate
[37] = tested on: OVCAR-3 ovarian
[38] = tested on: MCF7 breast
[39] = tested on: HOP-62 NSCLC
[40] = tested on: MOLT-4 leukemia
[41] = tested on: SNB-75 CNS
[42] = tested on: K-562 leukemia
[43] = tested on: SF-295 CNS
[44] = tested on: SF-539 CNS
[45] = tested on: NCI-H226 lung
[46] = tested on: MDA-MB-468 breast
[47] = tested on: M14 melanoma
[48] = tested on: DU-145 prostate
[49] = tested on: MDA-MB-231 breast
[50] = tested on: SK-MEL-2 melanoma
[51] = tested on: SF-268 CNS
[52] = tested on: T-47D breast
[53] = tested on: UACC-62 melanoma
[54] = tested on: MDA-MB-435
[55] = tested on: IGROV1 ovarian
[56] = tested on: UO-31 renal
[57] = tested on: CCRF-CEM leukemia
[58] = tested on: A498 renal
[59] = tested on: U251 CNS

## CCOc1ccc2ncc(C#Cc3cncc(C(=O)Nc4ccc(CN5CCN(C)CC5)c(C(F)(F)F)c4)c3)n2n1
[1]
  GI50: 225 nM
  TGI: 1560 nM
[2]
  GI50: 1890 nM
  TGI: 7250 nM
[3]
  GI50: 287 nM
  TGI: 2300 nM
[4]
  GI50: 475 nM
  TGI: 2390 nM
[5]
  TGI: 10500 nM
[6]
  GI50: 2340 nM
  TGI: 20100 nM
[7]
  GI50: 1160 nM
  TGI: 2660 nM
[8]
  GI50: 608 nM
  TGI: 1940 nM
[9]
  GI50: 1400 nM
  TGI: 21900 nM
[10]
  GI50: 1560 nM
  TGI: 2950 nM
[11]
  GI50: 206 nM
  TGI: 1340 nM
[12]
  GI50: 3560 nM
  TGI: 28700 nM
[13]
  GI50: 357 nM
  TGI: 1660 nM
[14]
  GI50: 353 nM
  TGI: 1710 nM
[15]
  GI50: 802 nM
  TGI: 12000 nM
[16]
  GI50: 393 nM
  TGI: 4900 nM
[17]
  GI50: 790 nM
  TGI: 13200 nM
[18]
  GI50: 561 nM
  TGI: 15000 nM
[19]
  GI50: 643 nM
  TGI: 11700 nM
[20]
  GI50: 1790 nM
  TGI: 12400 nM
[21]
  GI50: 283 nM
  TGI: 3110 nM
[22]
  GI50: 6370 nM
  TGI: 21700 nM
[23]
  GI50: 1300 nM
  TGI: 2660 nM
[24]
  GI50: 890 nM
  TGI: 2340 nM
[25]
  GI50: 272 nM
  TGI: 883 nM
[26]
  GI50: 2160 nM
  TGI: 11400 nM
[27]
  GI50: 704 nM
  TGI: 17800 nM
[28]
  GI50: 1060 nM
  TGI: 4380 nM
[29]
  GI50: 8090 nM
  TGI: 23300 nM
[30]
  GI50: 4640 nM
  TGI: 19700 nM
[31]
  GI50: 723 nM
  TGI: 9400 nM
[32]
  GI50: 534 nM
  TGI: 16900 nM
[33]
  GI50: 3210 nM
  TGI: 10600 nM
[34]
  GI50: 1160 nM
  TGI: 22700 nM
[35]
  GI50: 521 nM
  TGI: 16300 nM
[36]
  GI50: 1520 nM
  TGI: 19200 nM
[37]
  GI50: 4500 nM
  TGI: 24600 nM
[38]
  GI50: 208 nM
  TGI: 1740 nM
[39]
  GI50: 1250 nM
  TGI: 14400 nM
[40]
  GI50: 316 nM
  TGI: 3350 nM
[41]
  GI50: 3310 nM
  TGI: 16300 nM
[42]
  TGI: 1360 nM
[43]
  GI50: 918 nM
  TGI: 19000 nM
[44]
  GI50: 143 nM
  TGI: 755 nM
[45]
  GI50: 151 nM
  TGI: 1850 nM
[46]
  GI50: 1660 nM
  TGI: 11100 nM
[47]
  GI50: 416 nM
  TGI: 1790 nM
[48]
  GI50: 1100 nM
  TGI: 17300 nM
[49]
  GI50: 362 nM
  TGI: 2870 nM
[50]
  GI50: 1340 nM
  TGI: 11900 nM
[51]
  GI50: 1920 nM
  TGI: 17600 nM
[52]
  GI50: 17800 nM
  TGI: > 70500 nM
[53]
  GI50: 9920 nM
  TGI: 24500 nM
[54]
  GI50: 592 nM
  TGI: 5150 nM
[55]
  GI50: 2180 nM
  TGI: 19100 nM
[56]
  GI50: 2200 nM
  TGI: 13700 nM
[57]
  GI50: 64.2 nM
  TGI: > 21200 nM
[58]
  GI50: 6960 nM
  TGI: 24300 nM
[59]
  GI50: 11700 nM
  TGI: 30900 nM
